{
  "source": "patent US20140072557A1",
  "about": "“MEDICINAL AGENT FOR SUPPRESSING MALIGNANT TUMOR METASTASIS” (priority 2011, published 2014)",
  "key": {"[1]": {"system": "A549 cells", "assay": "EMT induced by TGF-β1 in A549 cells (morphology, quantitative RT-PCR)", "assay_type": "cell-based", "details": "final concentration 1 μM, A549 cells", "protocol": "Using a 6-well dish, the A549 cells were cultured at 1×10^5 cells/well, and the culture medium was replaced with DMEM culture medium free from FBS the next day. After 24 hours of culture, the cells were used in the following experiment.\nAn ANP group (ANP solution was added (final concentration: 1 μM)) and a control group (the same amount of physiological saline was added) were prepared, and after 2 hours from the addition, TGF-β1 was added so that the final concentration would be 0.125, 0.25, 0.5, 1.0, and 2.0 ng/mL. After 24 hours had passed, the morphological change in the cells was observed under a microscope and photographed (FIG. 3).\nThen, total RNA was collected using TRIZOL total RNA isolation reagent (made by Invitrogen), cDNA was synthesized using reverse transcriptase, and the mRNA levels of E-cadherin, N-cadherin, VEGF-A, PDGF-B, TNF-α, and IL-6 were measured by quantitative RT-PCR. It is known that in EMT, the expression of E-cadherin decreases while the expression of N-cadherin increases. The expression ratio of N-cadherin/E-cadherin is considered to be useful as an indicator of the degree of EMT."}, "[2]": {"molecular_target": "T1, natriuretic peptide receptor GC-B (Homo sapiens, UniProt P20594)", "T1 sequence (P20594 23-1047)": "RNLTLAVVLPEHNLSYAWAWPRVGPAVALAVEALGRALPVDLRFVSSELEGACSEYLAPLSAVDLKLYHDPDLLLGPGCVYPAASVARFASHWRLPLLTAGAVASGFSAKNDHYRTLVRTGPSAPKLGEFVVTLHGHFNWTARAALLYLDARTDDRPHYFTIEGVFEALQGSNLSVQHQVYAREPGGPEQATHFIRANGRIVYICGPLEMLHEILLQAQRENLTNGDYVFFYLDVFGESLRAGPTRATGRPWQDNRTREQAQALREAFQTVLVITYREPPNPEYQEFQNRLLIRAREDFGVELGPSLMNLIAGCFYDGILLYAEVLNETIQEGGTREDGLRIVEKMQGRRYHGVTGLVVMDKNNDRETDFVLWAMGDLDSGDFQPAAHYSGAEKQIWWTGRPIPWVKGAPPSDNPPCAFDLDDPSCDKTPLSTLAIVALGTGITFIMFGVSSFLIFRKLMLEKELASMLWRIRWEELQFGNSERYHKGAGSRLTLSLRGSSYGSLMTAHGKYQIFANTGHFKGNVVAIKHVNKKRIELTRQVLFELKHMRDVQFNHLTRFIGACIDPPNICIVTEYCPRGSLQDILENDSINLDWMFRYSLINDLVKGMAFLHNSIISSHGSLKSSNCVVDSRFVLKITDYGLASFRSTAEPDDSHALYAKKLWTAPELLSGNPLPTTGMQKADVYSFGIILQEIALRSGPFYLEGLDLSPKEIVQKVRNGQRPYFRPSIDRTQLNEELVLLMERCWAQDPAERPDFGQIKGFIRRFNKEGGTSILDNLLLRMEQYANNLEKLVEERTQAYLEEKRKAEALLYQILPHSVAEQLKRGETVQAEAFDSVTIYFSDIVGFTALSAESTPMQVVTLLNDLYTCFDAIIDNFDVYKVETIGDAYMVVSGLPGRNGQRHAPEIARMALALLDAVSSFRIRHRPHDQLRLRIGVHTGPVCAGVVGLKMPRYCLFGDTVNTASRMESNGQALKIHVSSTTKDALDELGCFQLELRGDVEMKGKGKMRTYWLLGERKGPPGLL", "details": "Furuya et al. 1992; cited from earlier work"}, "[3]": {"system": "mouse melanoma B16-F10", "assay": "Mouse tail vein injection metastasis test, mouse melanoma B16-F10", "assay_type": "in vivo, mice", "details": "2.5 μg/kg/min by subcutaneous osmotic pump, 2 weeks", "protocol": "6-week-old male […] mice were used (purchased from Japan SLC, Inc.). Mouse melanoma B16-F10 was purchased from ATCC, and cultured in DMEM (Life Technologies Corp.) containing 10% FCS under 5% CO2 at 37° C. The cells in a subconfluent state were treated with EDTA-trypsin, centrifuged, and then suspended in serum free DMEM so as to be 5×10^6 cells/mL. The melanoma cell suspension (100 μL/mouse, 5×10^5 cells) was injected to the tail vein of the mice. The osmotic pumps used were MODEL2002 (for 14-day administration) made by ALZET (Cupertino, Calif,.).\nMice into which an osmotic pump containing 0.9% physiological saline was subcutaneously implanted in the back were assigned to the control group. Similarly, an osmotic pump containing hANP prepared for administration at 0.5 μg/kg/min was subcutaneously implanted into each mouse in the ANP group, an osmotic pump containing mouse BNP prepared for administration at 0.5 μg/kg/min was subcutaneously implanted into each mouse in the BNP group, and an osmotic pump containing hCNP-22 prepared for administration at 2.5 μg/kg/min was subcutaneously implanted into each mouse in the CNP group. To the mice in the sildenafil group, sildenafil citrate at a dosage of 20 mg/kg was intraperitoneally administered once daily. […]"}, "[4]": {"system": "A549 cells", "assay": "Intracellular cGMP level in A549 cells on natriuretic peptide stimulus", "assay_type": "cell-based", "details": "1×10^−11 M to 1×10^−6 M, 10 minutes", "protocol": "The A549 cells were cultured in a 24-well dish at 4×10^4 cells/well, and the culture medium was replaced with DMEM culture medium free from FCS the next day. To the culture medium, solutions of hANP, hBNP, and hCNP (final concentration: ten-fold serial dilution from 1×10^−11 M to 1×10^−6 M, the same amount of physiological saline was used as a control) were separately added. After 10 minutes passed, 400 μL of cooled 70% ethanol (containing 0.1 N hydrochloric acid) was added, and ultrasonication was performed for a short time. The treated solution was lyophilized, and the cGMP level was measured using Cyclic GMP Assay kit (made by Yamasa Corp.)."}},
  "note": "Bridges are numbered along the chain shown (N, C = ends). Where no end group is shown, it is not given here.",
  "data": [
    {"substance": "LKL-ANP: a mutant in which the amino acids at positions 10 to 12 of hANP are replaced with LKL (SLRRSSCFGLKLDRIGAQSGLGCNSFRY; ends and bridges not checked; cysteine pairing not given here; UniProt P01160 124-151, looked up, variant G10L R11K M12L)", "values": [
      {"measurement": "ratio of suppression of EMT induced by TGF-β in terms of E-cad/Ncad", "setting": "[1]", "result": 52.9, "unit": "%"}
    ]},
    {"substance": "hCNP6-22: peptide consisting of amino acids from position 6 to position 22 of SEQ ID NO: 7 (ring structure only) (CFGLKLDRIGSMSGLGC; disulfide 1-17 (inferred); listed as Homo sapiens)", "values": [
      {"measurement": "GC-B agonist activity compared with hCNP-22", "setting": "[2]", "result": "comparable to that of hCNP-22"}
    ]},
    {"substance": "hCNP: 22-amino acid CNP-22 of human origin, GLSKGCFGLK LDRIGSMSGL GC (SEQ ID NO: 7), GC-B agonist (GLSKGCFGLKLDRIGSMSGLGC; listed as Homo sapiens)", "values": [
      {"measurement": "lung metastasis of melanoma (number of nodules)", "setting": "[3]", "result": "significantly suppressed"},
      {"measurement": "intracellular cGMP level", "setting": "[4]", "result": "did not show such increase"}
    ]},
    {"substance": "nesiritide [hBNP]", "values": [
      {"measurement": "intracellular cGMP level", "setting": "[4]", "result": "increased the intracellular cGMP level of the A549 cells in a concentration-dependent manner"}
    ]}
  ]
}
